From ChEMBL document CHEMBL5154908, “Design, Synthesis, and Biological Characterization of Inhaled p38α/β MAPK Inhibitors for the Treatment of Lung Inflammatory Diseases” (J Med Chem, 2022)
In brackets after ≈: the same amount, converted by molar mass.

Experiments:
[1] = Metabolic stability in rat liver microsomes assessed as half life at 1 uM preincubated for 10 mins followed by NADPH addition and measured after 30 mins by LC/MS/MS analysis; type: ADME, Microsome; conditions: time 40 min
[2] = biological target: T1, Mitogen-activated protein kinase 14 (Homo sapiens, UniProt Q16539); test: Inhibition of human recombinant full length GST-tagged p38alpha expressed in Escherichia coli preincubated for 2 hrs followed by ATP addition and measured after 1 hr by Alpha screen assay
[3] = Inhibition of LPS-stimulated TNFalpha release in human PBMC cells preincubated for 1 hr followed by LPS stimulation and measured after 18 hrs; type: functional, cell-based
[4] = biological target: T2, Mitogen-activated protein kinase 13 (Homo sapiens, UniProt O15264); test: Inhibition of recombinant human full length His-tagged p38delta expressed in baculovirus expression system preincubated for 2 hrs followed by ATP addition and measured after 1 hr by Alpha screen assay
T2 sequence (O15264 whole entry): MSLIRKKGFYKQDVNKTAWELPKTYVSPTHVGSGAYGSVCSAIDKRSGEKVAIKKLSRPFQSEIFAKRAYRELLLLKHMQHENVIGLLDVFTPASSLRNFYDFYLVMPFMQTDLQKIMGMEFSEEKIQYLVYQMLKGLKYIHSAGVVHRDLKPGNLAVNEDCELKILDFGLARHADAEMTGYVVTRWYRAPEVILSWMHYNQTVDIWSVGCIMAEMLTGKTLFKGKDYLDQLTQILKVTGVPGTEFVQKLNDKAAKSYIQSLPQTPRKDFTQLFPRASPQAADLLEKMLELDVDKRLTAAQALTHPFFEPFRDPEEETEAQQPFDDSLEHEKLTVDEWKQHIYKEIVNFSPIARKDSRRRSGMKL

[5] = Solubility of the compound at >=1 mg/ml measured after 30 mins by HPLC analysis; type: physicochemical
[6] = Permeability across apical to basolateral side in human Caco-2 cells at 10 uM measured after 60 mins by LC/MS/MS analysis; type: ADME, cell-based; conditions: read-out: permeability
[7] = Protein binding in rat plasma at 10 uM incubated for 4 hrs by LC/MS/MS analysis; type: ADME, cell-free; conditions: read-out: PPB (converted)
[8] = Protein binding in rat lung homogenate at 10 uM incubated for 4 hrs by LC/MS/MS analysis; type: ADME, tissue-based; conditions: read-out: PB (converted)
[9] = Selectivity index, ratio of drug concentration in Sprague-Dawley rat lung homogenate to IC50 for human p38alpha; type: tissue-based; conditions: tissue homogenate
[10] = Drug uptake in Sprague-Dawley rat lung homogenate at 0.03 mg/kg, IT measured after 7 hrs by LC/MS/MS analysis; type: ADME, organism-based; conditions: in vivo, other
[11] = Drug uptake in Sprague-Dawley rat lung homogenate at 0.03 mg/kg, IT measured after 24 hrs by LC/MS/MS analysis; type: ADME, organism-based; conditions: in vivo, other
[12] = Efflux ratio of permeability in human Caco-2 cells at 10 uM measured after 60 mins by LC-MS/MS analysis; type: ADME, cell-based
[13] = test system: Rattus norvegicus; test: Antiinflammatory activity against LPS-induced Sprague-Dawley rat inflammatory model assessed as inhibition of neutrophil cells release in BALF at 0.3 mg/kg, IT measured after 12 hrs relative to control; type: functional
[14] = Drug concentration in Sprague-Dawley rat lung homogenate at 0.3 mg/kg, IT measured after 24 hrs by LC/MS/MS analysis; type: ADME, organism-based; conditions: read-out: Ct
[15] = Cmax in Sprague-Dawley rat lung homogenate at 0.3 mg/kg, IT measured after 0.8 hrs by LC/MS/MS analysis; type: ADME, organism-based; parameters: time 0.8 hrs, dose 0.3 mg/kg, route it
[16] = Cmax in Sprague-Dawley rat plasma at 0.3 mg/kg, IT measured after 0.8 hrs by LC/MS/MS analysis; type: ADME, organism-based; parameters: time 0.8 hrs, dose 0.3 mg/kg, route it
[17] = biological target: T1, Mitogen-activated protein kinase 14; test: Displacement of SKF-86002 from human inactivated p38alpha assessed as dissociation half life incubated for 2 hrs by fluorescence based analysis
[18] = biological target: Mitogen-activated protein kinase 11 (Homo sapiens, UniProt Q15759); test: Inhibition of recombinant human full length His-tagged p38beta expressed in baculovirus expression system preincubated for 2 hrs followed by ATP addition and measured after 1 hr by Alpha screen assay
[19] = biological target: T3, Mitogen-activated protein kinase 12 (Homo sapiens, UniProt P53778); test: Inhibition of recombinant human full length His-tagged p38gamma expressed in baculovirus expression system preincubated for 2 hrs followed by ATP addition and measured after 1 hr by Alpha screen assay
T3 sequence (P53778 whole entry): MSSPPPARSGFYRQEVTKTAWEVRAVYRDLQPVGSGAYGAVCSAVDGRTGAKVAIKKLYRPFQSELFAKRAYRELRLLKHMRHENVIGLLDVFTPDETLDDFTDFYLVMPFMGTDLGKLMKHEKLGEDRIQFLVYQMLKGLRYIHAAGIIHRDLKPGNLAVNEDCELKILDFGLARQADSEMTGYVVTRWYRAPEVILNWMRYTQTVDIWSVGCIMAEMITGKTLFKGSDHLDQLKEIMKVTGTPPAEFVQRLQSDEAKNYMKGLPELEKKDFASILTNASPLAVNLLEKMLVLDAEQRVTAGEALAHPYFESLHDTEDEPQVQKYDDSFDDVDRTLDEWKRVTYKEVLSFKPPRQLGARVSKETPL

[20] = Cmax in Sprague-Dawley rat plasma at 0.03 mg/kg, IT measured after 0.8 hrs by LC/MS/MS analysis; type: ADME, organism-based; parameters: dose 0.03 mg/kg, time 0.8 hrs, route it
[21] = Cmax in Sprague-Dawley rat lung homogenate at 0.03 mg/kg, IT measured after 0.8 hrs by LC/MS/MS analysis; type: ADME, organism-based; parameters: time 0.8 hrs, dose 0.03 mg/kg, route it
[22] = biological target: Ephrin type-A receptor 4 (Homo sapiens) (UniProt P54764); test: Inhibition of EphA4 (unknown origin) at 1 uM relative to control
[23] = biological target: Epithelial discoidin domain-containing receptor 1 (Homo sapiens) (UniProt Q08345); test: Inhibition of human DDR1 at 100 nM by KINOMEscan assay relative to control
[24] = biological target: T4, Discoidin domain-containing receptor 2 (Homo sapiens) (UniProt Q16832); test: Inhibition of human DDR2 at 100 nM by KINOMEscan assay relative to control
T4 sequence (whole entry): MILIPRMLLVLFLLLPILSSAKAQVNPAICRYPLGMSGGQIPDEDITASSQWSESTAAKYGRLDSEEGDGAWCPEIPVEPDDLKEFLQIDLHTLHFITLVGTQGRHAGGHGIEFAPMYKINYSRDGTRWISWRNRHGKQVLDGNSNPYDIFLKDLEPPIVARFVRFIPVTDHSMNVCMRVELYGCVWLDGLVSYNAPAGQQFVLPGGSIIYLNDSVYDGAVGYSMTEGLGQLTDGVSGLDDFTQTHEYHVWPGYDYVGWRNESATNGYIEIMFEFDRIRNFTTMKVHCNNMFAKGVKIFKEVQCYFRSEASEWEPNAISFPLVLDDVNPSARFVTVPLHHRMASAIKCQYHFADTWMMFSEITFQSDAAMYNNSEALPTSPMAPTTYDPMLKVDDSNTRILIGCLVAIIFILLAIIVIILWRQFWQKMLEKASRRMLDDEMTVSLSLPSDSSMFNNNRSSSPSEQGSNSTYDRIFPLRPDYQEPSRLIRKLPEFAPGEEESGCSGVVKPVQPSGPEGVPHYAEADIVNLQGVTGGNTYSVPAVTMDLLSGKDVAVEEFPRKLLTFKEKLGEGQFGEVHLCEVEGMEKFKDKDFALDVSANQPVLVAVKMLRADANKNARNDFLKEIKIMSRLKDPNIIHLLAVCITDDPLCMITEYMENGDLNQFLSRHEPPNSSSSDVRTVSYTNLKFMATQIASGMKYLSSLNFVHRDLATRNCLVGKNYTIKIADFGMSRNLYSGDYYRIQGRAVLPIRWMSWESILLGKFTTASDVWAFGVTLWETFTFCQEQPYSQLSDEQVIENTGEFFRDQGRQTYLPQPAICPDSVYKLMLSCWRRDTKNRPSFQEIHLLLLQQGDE

[25] = biological target: TRAF2 and NCK-interacting protein kinase (Homo sapiens) (UniProt Q9UKE5); test: Inhibition of TNIK (unknown origin) at 100 nM by KINOMEscan assay relative to control
[26] = biological target: Citron Rho-interacting kinase (Homo sapiens) (UniProt O14578); test: Inhibition of human CIT at 100 nM by KINOMEscan assay relative to control
[27] = biological target: T1, Mitogen-activated protein kinase 14; test: Binding affinity to biotinylated P38alpha assessed as dissociation half life by SPR analysis
[28] = test system: Rattus norvegicus; test: Antiinflammatory activity against LPS-induced Sprague-Dawley rat inflammatory model assessed as inhibition of neutrophil cells release in BALF at 0.1 mg/kg, IT preincubated for 2 hrs followed by LPS-stimulation and measured after 4 hrs relative to control; type: functional; parameters: scale not given: the % may be the effect or the level left; conditions: time 6 hrs

Chain of Mitogen-activated protein kinase 11 (Q15759 whole entry): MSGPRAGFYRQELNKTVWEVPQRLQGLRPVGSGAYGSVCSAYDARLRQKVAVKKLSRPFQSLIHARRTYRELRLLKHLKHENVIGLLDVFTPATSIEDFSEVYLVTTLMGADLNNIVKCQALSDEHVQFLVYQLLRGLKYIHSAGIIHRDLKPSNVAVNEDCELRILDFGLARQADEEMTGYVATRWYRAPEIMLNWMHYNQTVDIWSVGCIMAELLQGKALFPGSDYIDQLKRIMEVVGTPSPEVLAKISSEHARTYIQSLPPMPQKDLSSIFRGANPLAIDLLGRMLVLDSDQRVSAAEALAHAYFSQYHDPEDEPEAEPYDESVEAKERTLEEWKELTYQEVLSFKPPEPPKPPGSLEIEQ
T1 sequence (Q16539 whole entry): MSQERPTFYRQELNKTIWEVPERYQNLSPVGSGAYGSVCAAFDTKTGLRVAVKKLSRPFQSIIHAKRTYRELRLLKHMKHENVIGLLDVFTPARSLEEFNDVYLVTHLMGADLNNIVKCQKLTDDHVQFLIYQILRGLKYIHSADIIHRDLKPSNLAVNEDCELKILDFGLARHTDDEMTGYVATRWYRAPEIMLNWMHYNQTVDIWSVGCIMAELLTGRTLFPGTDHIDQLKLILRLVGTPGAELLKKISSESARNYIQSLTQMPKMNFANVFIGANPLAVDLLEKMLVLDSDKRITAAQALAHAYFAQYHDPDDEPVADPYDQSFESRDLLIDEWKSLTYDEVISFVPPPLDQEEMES
Chain of Epithelial discoidin domain-containing receptor 1 (Homo sapiens) (Q08345 whole entry, the tested form may be a part): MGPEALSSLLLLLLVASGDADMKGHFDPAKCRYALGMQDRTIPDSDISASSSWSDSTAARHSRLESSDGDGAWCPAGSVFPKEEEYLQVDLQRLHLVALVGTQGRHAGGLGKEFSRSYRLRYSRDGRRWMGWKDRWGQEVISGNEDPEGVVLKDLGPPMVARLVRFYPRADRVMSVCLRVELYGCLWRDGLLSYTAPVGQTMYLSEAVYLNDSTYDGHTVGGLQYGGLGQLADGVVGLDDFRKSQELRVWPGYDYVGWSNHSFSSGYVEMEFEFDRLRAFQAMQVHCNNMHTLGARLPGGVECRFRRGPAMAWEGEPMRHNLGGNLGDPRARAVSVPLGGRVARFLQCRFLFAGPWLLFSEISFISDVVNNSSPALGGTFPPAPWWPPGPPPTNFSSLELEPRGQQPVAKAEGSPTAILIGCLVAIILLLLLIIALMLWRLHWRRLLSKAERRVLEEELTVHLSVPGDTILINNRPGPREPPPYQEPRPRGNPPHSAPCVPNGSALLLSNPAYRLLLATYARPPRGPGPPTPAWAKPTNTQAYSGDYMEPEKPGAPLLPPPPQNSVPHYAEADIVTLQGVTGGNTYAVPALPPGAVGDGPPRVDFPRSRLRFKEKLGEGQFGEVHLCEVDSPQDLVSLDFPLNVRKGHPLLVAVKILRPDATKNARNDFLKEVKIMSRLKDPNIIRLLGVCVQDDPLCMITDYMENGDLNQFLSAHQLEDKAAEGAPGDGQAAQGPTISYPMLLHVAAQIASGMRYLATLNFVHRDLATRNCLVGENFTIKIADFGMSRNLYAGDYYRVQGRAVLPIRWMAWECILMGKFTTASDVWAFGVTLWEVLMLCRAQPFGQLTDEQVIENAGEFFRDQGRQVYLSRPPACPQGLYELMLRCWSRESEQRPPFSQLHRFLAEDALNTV
Chain of Ephrin type-A receptor 4 (Homo sapiens) (P54764 whole entry, the tested form may be a part): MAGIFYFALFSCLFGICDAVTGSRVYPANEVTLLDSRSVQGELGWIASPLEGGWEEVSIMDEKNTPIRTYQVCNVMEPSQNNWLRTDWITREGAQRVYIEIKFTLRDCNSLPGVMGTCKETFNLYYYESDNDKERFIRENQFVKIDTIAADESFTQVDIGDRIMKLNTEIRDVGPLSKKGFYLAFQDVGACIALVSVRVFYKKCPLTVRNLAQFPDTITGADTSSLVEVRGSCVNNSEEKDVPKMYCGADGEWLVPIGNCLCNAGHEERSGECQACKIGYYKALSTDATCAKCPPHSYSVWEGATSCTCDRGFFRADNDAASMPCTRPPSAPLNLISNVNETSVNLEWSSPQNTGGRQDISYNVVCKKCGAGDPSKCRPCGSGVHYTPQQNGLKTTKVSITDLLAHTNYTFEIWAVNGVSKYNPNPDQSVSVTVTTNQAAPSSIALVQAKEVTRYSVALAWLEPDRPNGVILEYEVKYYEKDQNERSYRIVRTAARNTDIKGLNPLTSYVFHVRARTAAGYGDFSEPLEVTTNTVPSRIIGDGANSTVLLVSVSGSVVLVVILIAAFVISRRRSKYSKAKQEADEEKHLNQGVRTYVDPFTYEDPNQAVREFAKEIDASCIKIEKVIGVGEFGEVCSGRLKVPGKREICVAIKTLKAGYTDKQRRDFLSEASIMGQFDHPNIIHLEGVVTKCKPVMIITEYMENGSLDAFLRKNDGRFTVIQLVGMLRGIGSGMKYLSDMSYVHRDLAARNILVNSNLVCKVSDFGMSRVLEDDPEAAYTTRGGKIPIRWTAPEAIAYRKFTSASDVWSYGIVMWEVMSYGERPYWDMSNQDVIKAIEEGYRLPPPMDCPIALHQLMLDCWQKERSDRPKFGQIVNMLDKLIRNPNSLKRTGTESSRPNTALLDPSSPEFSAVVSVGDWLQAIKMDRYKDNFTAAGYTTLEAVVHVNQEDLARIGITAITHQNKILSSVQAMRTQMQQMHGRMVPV
Chain of Citron Rho-interacting kinase (Homo sapiens) (O14578 whole entry): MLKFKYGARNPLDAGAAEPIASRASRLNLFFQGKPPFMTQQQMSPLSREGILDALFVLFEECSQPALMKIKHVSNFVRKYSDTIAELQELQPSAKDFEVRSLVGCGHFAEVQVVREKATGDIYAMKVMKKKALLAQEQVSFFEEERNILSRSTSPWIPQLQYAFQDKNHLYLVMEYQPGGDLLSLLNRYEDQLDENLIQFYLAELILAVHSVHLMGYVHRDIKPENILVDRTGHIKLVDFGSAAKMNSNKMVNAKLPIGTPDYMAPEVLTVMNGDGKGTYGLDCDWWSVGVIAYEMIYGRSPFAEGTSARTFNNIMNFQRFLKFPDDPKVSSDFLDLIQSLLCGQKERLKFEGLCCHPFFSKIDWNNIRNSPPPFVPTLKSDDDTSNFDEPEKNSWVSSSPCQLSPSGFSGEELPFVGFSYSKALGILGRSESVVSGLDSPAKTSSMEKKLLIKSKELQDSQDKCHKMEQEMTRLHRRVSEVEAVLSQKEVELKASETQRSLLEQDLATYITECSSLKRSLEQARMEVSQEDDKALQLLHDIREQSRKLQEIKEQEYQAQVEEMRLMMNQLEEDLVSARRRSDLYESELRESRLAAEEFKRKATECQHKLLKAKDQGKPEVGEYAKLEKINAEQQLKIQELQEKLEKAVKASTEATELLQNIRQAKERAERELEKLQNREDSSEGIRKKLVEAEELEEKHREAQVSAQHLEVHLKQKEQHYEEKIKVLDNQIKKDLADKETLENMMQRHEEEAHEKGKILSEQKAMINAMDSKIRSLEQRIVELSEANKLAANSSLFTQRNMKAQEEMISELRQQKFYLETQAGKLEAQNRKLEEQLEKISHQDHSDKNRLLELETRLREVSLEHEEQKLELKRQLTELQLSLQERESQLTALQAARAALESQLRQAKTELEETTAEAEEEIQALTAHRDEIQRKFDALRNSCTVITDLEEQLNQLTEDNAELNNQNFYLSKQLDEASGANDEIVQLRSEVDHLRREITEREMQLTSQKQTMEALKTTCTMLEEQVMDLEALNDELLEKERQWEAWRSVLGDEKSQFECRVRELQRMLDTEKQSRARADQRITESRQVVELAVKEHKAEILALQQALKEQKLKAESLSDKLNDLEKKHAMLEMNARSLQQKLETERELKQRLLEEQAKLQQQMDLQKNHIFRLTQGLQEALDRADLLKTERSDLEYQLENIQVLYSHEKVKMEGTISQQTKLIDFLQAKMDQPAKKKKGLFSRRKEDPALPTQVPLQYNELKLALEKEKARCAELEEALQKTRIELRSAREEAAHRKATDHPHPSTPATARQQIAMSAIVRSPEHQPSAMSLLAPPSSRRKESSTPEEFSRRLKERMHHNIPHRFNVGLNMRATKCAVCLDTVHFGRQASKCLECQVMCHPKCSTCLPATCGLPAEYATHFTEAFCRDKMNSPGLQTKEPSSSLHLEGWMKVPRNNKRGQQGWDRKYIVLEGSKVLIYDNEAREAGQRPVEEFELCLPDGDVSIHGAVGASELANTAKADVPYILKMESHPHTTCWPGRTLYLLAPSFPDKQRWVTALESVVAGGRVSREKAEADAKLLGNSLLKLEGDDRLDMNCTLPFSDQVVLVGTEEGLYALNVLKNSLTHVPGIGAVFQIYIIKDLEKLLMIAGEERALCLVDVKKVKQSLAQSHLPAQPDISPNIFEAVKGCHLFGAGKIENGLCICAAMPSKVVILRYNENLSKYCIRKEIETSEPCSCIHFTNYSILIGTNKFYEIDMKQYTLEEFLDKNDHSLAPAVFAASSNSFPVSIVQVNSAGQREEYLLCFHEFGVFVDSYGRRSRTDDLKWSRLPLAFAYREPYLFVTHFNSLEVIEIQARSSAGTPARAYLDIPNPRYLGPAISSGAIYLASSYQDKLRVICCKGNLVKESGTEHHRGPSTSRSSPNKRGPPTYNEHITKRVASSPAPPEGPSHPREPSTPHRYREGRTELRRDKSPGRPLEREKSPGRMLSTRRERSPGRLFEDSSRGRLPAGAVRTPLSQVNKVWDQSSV

| SMILES | half-life at 1 µM [1] | IC50 [2] | IC50 [3] | IC50 [4] | solubility at 0.5 h [5] | Papp A→B at 1 h, 10 µM [6] | fraction unbound at 4 h, 10 µM [7] | fraction unbound at 4 h, 10 µM [8] | Ratio [9] | Drug uptake [10] | Drug uptake [11] | efflux ratio at 1 h, 10 µM [12] | inhibition in vivo at 0.3 mg/kg [13] | concentration at 24 h [14] | T1/2 [17] | IC50 [18] | IC50 [19] | Cmax [20] | Cmax [21] | other results |
| --- | --- | --- | --- | --- | --- | --- | --- | --- | --- | --- | --- | --- | --- | --- | --- | --- | --- | --- | --- | --- |
| C[C@H]1CCCCN1c1nnc2ccc(O[C@@H]3CC[C@H](NC(=O)Nc4cc(C(C)(C)C)nn4-c4cnn(CCN(C)C)c4)c4ccccc43)cn12 [listing 1 of 2 here] | < 0.0833 h | 0.1 nM | 1 nM | 4100 nM | 800 µg/mL (≈ 1180 µM) | 1.2 ×10⁻⁶ cm/s | 0.014 | 0.005 | 70 | 7.2% | 1.7% | > 2.5 | 56% | 1400 nM | – | – | – | – | – | Cmax [15]: 3040 nM; Cmax [16]: 20 nM |
| C[C@H]1CCCCN1c1nnc2ccc(O[C@@H]3CC[C@H](NC(=O)Nc4cc(C(C)(C)C)nn4-c4cccc(OCCN(C)C)c4)c4ccccc43)cn12 | 0.333 h | 0.2 nM | 1 nM | > 10000 nM | 100 µg/mL (≈ 142 µM) | 1.4 ×10⁻⁶ cm/s | 0.003 | 0.001 | 4.9 | 8.4% | 1.6% | > 2.5 | 49% | 970 nM | > 16 h | 1.3 nM | 2860 nM | 10 nM | 2700 nM | – |
| Cc1ccc(-n2nc(C(C)(C)C)cc2NC(=O)N[C@H]2CC[C@@H](Oc3ccc4nnc(N5CCC(CO)CC5)n4c3)c3ccccc32)cc1 | 0.25 h | 0.3 nM | 1 nM | 931 nM | 10 µg/mL (≈ 15.4 µM) | 3.3 ×10⁻⁶ cm/s | 0.001 | 0.009 | > 300 | 99% | 23% | > 2.5 | 19% | 10300 nM | > 16 h | 0.8 nM | 10 nM | 50 nM | 5070 nM | – |
| C[C@H]1CCCCN1c1nnc2ccc(O[C@@H]3CC[C@H](NC(=O)Nc4cc(C(C)(C)C)nn4-c4cnn(CCN(C)C)c4)c4ccccc43)cn12 [listing 2 of 2 here] | – | – | – | – | – | – | – | – | – | – | – | – | – | – | > 16 h | – | – | – | – | inhibition [22]: 82%; inhibition [23]: > 50%; inhibition [24]: > 50%; inhibition [25]: > 50%; inhibition [26]: > 50%; T1/2 [27]: 51 h |
| CC(C)(C)c1cc(NC(=O)NCc2ccccc2Sc2ccc3nnc(-c4ccccc4SCCO)n3c2)n(-c2ccc(O)c(Cl)c2)n1 [PF-03715455] | – | – | 8 nM | – | – | – | – | – | – | – | – | – | – | – | – | – | – | – | – | Activity [28]: 14% |
| Cc1ccc(-n2nc(C(C)(C)C)cc2NC(=O)N[C@H]2CC[C@@H](Oc3ccc4nnc(N5CCCCC5)n4c3)c3ccccc32)cc1 | < 0.167 h | 0.3 nM | 0.3 nM | > 10000 nM | 30 µg/mL (≈ 48.5 µM) | 2.5 ×10⁻⁶ cm/s | < 0.001 | 0.001 | 40 | 21% | 19% | > 2.5 | 20% | 12100 nM | > 16 h | 0.4 nM | 16 nM | 60 nM | 3180 nM | – |
